# Legend:
# [1] = biological target: T1, Human collagenase (MMP-1) (Homo sapiens, UniProt P03956); experiment: Biochemical assay (Protocol A), Ki at steady state, MMP-1; settings: preincubation, 37° C., pH=7.4, read-out: Ki at steady state (Ki*) for inhibition of MMP-1
# T1 sequence (P03956 101-269): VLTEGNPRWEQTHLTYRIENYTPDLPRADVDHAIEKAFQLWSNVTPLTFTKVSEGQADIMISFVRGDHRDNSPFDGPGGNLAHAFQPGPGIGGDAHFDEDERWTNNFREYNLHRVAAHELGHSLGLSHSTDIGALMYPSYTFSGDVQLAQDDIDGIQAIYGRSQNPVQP
# Method: (§1) Human gelatinase-A (MMP-2) was obtained as pro-enzyme (72 kDa) and was activated with 1 mM 4-aminophenylmercuric acetate for 30 min at 37° C. immediately prior to use. Human stromelysin-1-255 (MMP-3) was obtained as a recombinant pro-enzyme isolated from E. coli and activated by heat (1 h, 55° C.).
# (§2) The substrate was the commercial quenched-fluorescence peptide Mca-Pro-Leu-Gly-Leu-Dpa-Ala-Arg-NH2, that is (7-methoxycoumarin4-yl)Acetyl-Pro-Leu-Glv-Leu-(3-[2,4-dinitrophenyl]-L-2,3-diamino-propionyl)-Ala-Arg-NH2 (C. G. Knight et al., FEBS Lett.296:263, 1992). The enzymes cleave at the Gly-Leu bond, removing the internally quenching Dpa group. Release of the highly fluorescent peptide Mca-Pro-Leu was followed fluorimetrically at 37° C. using a Perkin Elmer LS-50 Fluorescence Spectrophotometer fitted with a thermostatted four position stirring cell changer. The excitation wavelength was set at 326 nm (bandwidth 5 nm) and the emission at 392 nm (bandwidth 20 nm). Km values of this substrate for the three MMP's is 70 μM or more (Knight et al., reference above). Substrate concentration was 2 μM in the tests, so that we could approximate to unit the term (1+[substrate]/KM) in calculations. The substrate was stable for over 60 minutes in the assay conditions, giving no appreciable increment of fluorescence. Full response was adjusted against 200 nM Mca-Pro-Leu-OH (the released fluorescent peptide) and the instrument was calibrated in the range 0-100 nM Mca-Pro-Leu-OH, corresponding to 0-5% extent of hydrolysis of the 2 μM substrate. The aqueous assay buffer was 50 mM Tris/HCl pH=7.4 containing 0.15 M NaCl, 10 mM CaCl2, 0.01 mM ZnCl2 and 0.05% Brij 35. The concentration of the activated enzyme was determined by titration against representative inhibitors described in the literature and synthesized in house: Roche Ro31-9790 (N. G. Knebel et al., J. Chromatogr. B 673:213, 1995) for MMP-1, and Celltech CT-1418 (compound 1 in S. K. Chander, J. Pharm. Sci. 84:404, 1995) for MMP-2 and MMP-3. Enzyme concentrations in the tests were set at 1.0 nM for MMP-1, 0.04 nM for MMP-2, and 3.0 nM for M-3. Under our assay conditions, we measured keat/KM values of 26900, 669000 and 9740 1/(M×s) for MMP-1, MMP-2 and MMP-3, respectively. All the three enzymes were found stable for over three hours in the assay conditions.
# (§3) The inhibition constant for compounds of the present invention was measured at steady state (Ki*; see J. F. Morrison and C. T. Walsh, Adv. Enzymol. Relat. Areas Mol. Biol. 61:201, 1988), upon preincubation experiment, by measuring V0, the initial rate in the absence of inhibitor, and Vs, the steady-state velocity, at different concentrations of inhibitors in the region of their enzyme-inhibitor dissociation constants.
# (§4) On a routine basis, 1.94 mL of assay buffer was pre-heated at 37° C. in a vial, 0.02 mL of inhibitor in DMSO (or DMSO only), and 0.02 ml of 100 nM MMP-1 or 4 nM MMP-2 or 300 nM MMP-3 were added, mixed, and the vial was held at 37° C. for 5-180 minutes. Then 0.02 ml of 0.2 mM substrate was added, mixed and transferred into a pre-heated cell. The sample was allowed to equilibrate in the cuvette for 3-5 min at 37° C. against small changes in temperature and changes in the enzyme-inhibitor equilibria related to addition of substrate. After that, the linear increase of fluorescence was monitored over 3-5 min, and the slope (Vo or Vs) was obtained. Inhibitor concentrations were varied to collect data over Vs/Vo ratio ranging from 0.05 to 0.95. The values of Ki* were calculated by nonlinear weighted regression to the tight-binding equation according to Morrison and Walsh above:
# (§5) Vs/Vo=[1/(2×Et)]×SQR[(Ki*+It−Et)^2+4×Ki*×Et]−(Ki*+It−Et)
# (§6) wherein Et is the total enzyme concentration, and It is the total inhibitor concentration. The following Table I lists Ki* obtained for some representative examples: […]
# [2] = biological target: T2, Human gelatinase-A (MMP-2) (Homo sapiens, UniProt P08253); experiment: Biochemical assay (Protocol A), Ki at steady state, MMP-2; settings: preincubation, 37° C., pH=7.4, read-out: Ki at steady state (Ki*) for inhibition of MMP-2
# T2 sequence (P08253 110-660): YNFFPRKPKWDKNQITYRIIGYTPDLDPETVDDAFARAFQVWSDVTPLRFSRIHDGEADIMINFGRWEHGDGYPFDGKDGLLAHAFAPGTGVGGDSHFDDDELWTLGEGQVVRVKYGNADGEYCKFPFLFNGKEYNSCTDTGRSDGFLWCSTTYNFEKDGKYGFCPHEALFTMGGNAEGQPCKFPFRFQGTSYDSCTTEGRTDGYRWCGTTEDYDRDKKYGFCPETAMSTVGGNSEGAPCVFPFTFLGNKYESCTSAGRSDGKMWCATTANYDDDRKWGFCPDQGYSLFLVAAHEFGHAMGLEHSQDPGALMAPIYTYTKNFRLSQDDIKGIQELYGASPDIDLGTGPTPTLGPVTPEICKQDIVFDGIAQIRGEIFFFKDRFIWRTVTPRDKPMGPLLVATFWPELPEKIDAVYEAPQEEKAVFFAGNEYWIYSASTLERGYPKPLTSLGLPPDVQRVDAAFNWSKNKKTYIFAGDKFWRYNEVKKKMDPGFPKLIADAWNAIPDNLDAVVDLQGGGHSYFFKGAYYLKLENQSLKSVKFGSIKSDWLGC
# Method: as §1, §2, §3, §4, §5, §6
# [3] = biological target: T3, Human stromelysin-1-255 (MMP-3) (Homo sapiens, UniProt P08254); experiment: Biochemical assay (Protocol A), Ki at steady state, MMP-3; settings: preincubation, 37° C., pH=7.4, read-out: Ki at steady state (Ki*) for inhibition of MMP-3
# T3 construct: host or cells: E. coli
# Method: as §1, §2, §3, §4, §5, §6
# T3 sequence (P08254 100-255 limits assumed): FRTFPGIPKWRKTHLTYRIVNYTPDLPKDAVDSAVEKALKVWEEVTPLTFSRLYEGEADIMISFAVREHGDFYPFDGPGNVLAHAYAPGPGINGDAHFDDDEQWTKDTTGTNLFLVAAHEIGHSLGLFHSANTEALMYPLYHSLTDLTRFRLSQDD
Ki [1] [nM],Ki [2] [nM],Ki [3] [nM],Compound
2000,40,390,"COc1ccc(CCC[C@@H](C(=O)N2CCOCC2)[C@H](NS(=O)(=O)c2ccc(OC)cc2)C(=O)NO)cc1 [Example 20, (4-Hydroxyamino-3S-(4-methoxyphenylsulfonyl)amino-2R-(4-methoxy)phenpropyl)succinyl-morpholinamide]"
3,16,145,"COc1ccc(S(=O)(=O)N[C@H](C(=O)NO)[C@@H](CC2CCCC2)C(=O)N2CCCCC2)cc1 [Example 23, (2R-Cyclopentylmethyl-4-hydroxyamino-3S-(4-methoxyphenylsulfonyl)amino)succinyl-piperidinamide]"
170,400,11000,"CC(C)C[C@@H](C(=O)NC(C1CCCCC1)C1CCCCC1)[C@H](N)C(=O)NO [Example 24, (3S-Amino-4-hydroxyamino-2R-isobutyl)succinyl-dicyclohexylmethylamide]"
76,190,2300,"CC(C)C[C@@H](C(=O)NC(c1ccccc1)c1ccccc1)[C@H](N)C(=O)NO [Example 25, (3S-Amino-4-hydroxyamino-2R-isobutyl)succinyl-diphenylmethylamide]"
7500,600,10000,"COc1ccc(CCC[C@@H](C(=O)N2CCC2)[C@H](N)C(=O)NO)cc1 [Example 28, (3S-Amino-4-hydroxyamino-2R-(4-methoxy)phenpropyl)succinyl-azetidinamide]"
3.6,25,270,"CN(C)[C@H](C(=O)NO)[C@@H](CC1CCCC1)C(=O)N1CCCCC1 [Example 30, (2R-Cyclopentylmethyl-3S-N,N-dimethylamino-4-hydroxyamino)succinyl-piperidinamide]"
2600,37,500,"COc1ccc(CCC[C@@H](C(=O)N[C@H](C)C2CCCCC2)[C@H](N)C(=O)NO)cc1 [Example 32, (3S-Amino-4-hydroxyamino-2R-(4-methoxy)phenpropyl)succinyl-(1R-cyclohexylethyl)amide]"
> 10000,460,6600,"COc1ccc(CCC[C@@H](C(=O)N[C@@H](C)C2CCCCC2)[C@H](N)C(=O)NO)cc1 [Example 33, (3S-Amino-4-hydroxyamino-2R-(4-methoxy)phenpropyl)succinyl-(1S-cyclohexylethyl)amide]"
2400,21,1400,"COc1ccc(CCC[C@@H](C(=O)N2CCC(C(=O)NC(C)(C)C)CC2)[C@H](N)C(=O)NO)cc1 [Example 34, (3S-Amino-4-hydroxyamino-2R-(4-methoxy)phenpropyl)succinyl-(4-tert-butylaminocarbonyl)piperidinamide]"
2.9,8,31,"CN(C)[C@H](C(=O)NO)[C@@H](CC1CCCC1)C(=O)N1CCN(Cc2ccc3c(c2)OCO3)CC1 [Example 35, (2R-Cyclopentylmethyl-3S-N,N-dimethylamino-4-hydroxyamino)succinyl-(4-piperonyl)-piperazinamide]"
1.8,2.6,35,"COc1ccc(S(=O)(=O)N[C@H](C(=O)NO)[C@@H](CC2CCCC2)C(=O)N2CCN(Cc3ccc4c(c3)OCO4)CC2)cc1 [Example 37, (2R-Cyclopentylmethyl-4-hydroxyamino-3S-(4-methoxyphenyl)sulfonylamino)succinyl-(4-piperonyl)piperazinamide]"
760,90,806,"COc1ccc(CCC[C@@H](C(=O)N2CCCCC2)[C@H](NCc2cccnc2)C(=O)NO)cc1 [Example 39, (4-Hydroxyamino-2R-(4-methoxy)phenpropyl-3S-(3-pyridyl)methylamino)succinyl-piperidinamide]"
1400,16,760,"COc1ccc(CCC[C@@H](C(=O)N2CCN(c3ccccn3)CC2)[C@H](N)C(=O)NO)cc1 [Example 42, (3S-Amino-4-hydroxyamino-2R-(4-methoxy)phenpropyl)succinyl-4-(2-pyridyl)piperazinamide]"
7.8,66,,"O=C(NO)[C@@H](NS(=O)(=O)c1ccc(F)cc1)[C@@H](CC1CCCC1)C(=O)N1CCCCC1 [Example 61, (2R-Cyclopentylmethyl-3S-(4-fluorophenylsulfonyl)amino-4-hydroxyamino)succinylpiperidinamide]"

Compound,Ki [1] [nM],Ki [2] [nM],Ki [3] [nM]
"COc1ccc(CCC[C@@H](C(=O)N2CCOCC2)[C@H](NC(=O)OC(C)(C)C)C(=O)NO)cc1 [Example 15, (3S-tert-Butoxycarbonylamino-4-hydroxyamino-2R-(4-methoxy)phenpropyl)succinyl-morpholinamide]",17000,630,6500
"COc1ccc(CCC[C@@H](C(=O)N2CCCCC2)[C@H](NC(=O)OC(C)(C)C)C(=O)NO)cc1 [Example 17, (3S-tert-Butoxycarbonylamino-4-hydroxyamino-2R-(4-methoxy)phenpropyl)succinyl-piperidinamide]",9400,610,4300
"CC(C)(C)OC(=O)N[C@H](C(=O)NO)[C@@H](CC1CCCC1)C(=O)N1CCN(Cc2ccc3c(c2)OCO3)CC1 [Example 26, (3S-tert-Butoxycarbonylamino-2R-cyclopentylmethyl-4-hydroxyamino)succinyl-(4-piperonyl)piperazinamide]",71,100,600
"CNC(=O)[C@H](Cc1ccccc1)N(C)C(=O)[C@H](CC(C)C)[C@H](N)C(=O)NO [Example 44, (3S-Amino-4-hydroxyamino-2R-isobutyl)succinyl-N-methyl-N-(1S-methylaminocarbonyl-2-phenyl)ethylamide]",8.9,2.3,210

# Reference: patent US6482827B1, “Matrix metalloproteinase inhibitors” (Pharmacia & Upjohn S.p.A., priority 1997, dated 2002)
